Data as given in patent publication US4650790A, “Drug combinations having synergistic effect” (Patentbureau Danubia, priority 1984, dated 1987).
Structures can show the parent of a compound that is named as a salt. Where two headings read alike, the source gives them in different places.

How the values were obtained:
E. coli (Swine) = assay: Microbiological assay, MIC and MBC, E. coli (Swine); type: cell-based; conditions: combinations 1:1 by weight
Pasteurella multocida = assay: Microbiological assay, MIC and MBC, Pasteurella multocida; conditions: combinations 1:1 by weight
E. coli (Calf) = assay: Microbiological assay, MIC and MBC, E. coli (Calf); conditions: combinations 1:1 by weight
Staphylococcus aureus = assay: Microbiological assay, minimal inhibiting (MIC) and minimal bactericide (MBC) concentrations, Staphylococcus aureus; conditions: combinations 1:1 by weight
Salmonella typhi-murium = assay: Microbiological assay, MIC and MBC, Salmonella typhi-murium; type: cell-based; conditions: combinations 1:1 by weight
[1] = test system: some Gram positive bacteria, Mycoplasma and the most important Treponema; conditions: cited from earlier work
Treponema hyodysenteriae = conditions: orally applied; swine dysentery; British patent specification No. 2,072,012; cited from earlier work
Mycoplasma hyopneumoniae = conditions: orally applied; enzootic pneumonia; Taylor, IPVS Congress 1982; cited from earlier work
[2] = in vivo; cited from earlier work
[3] = test system: Pseudomonas strains of mastitic origin; conditions: cited from earlier work
[4] = Escherichia coli, read-out: MBC
[5] = Escherichia coli, read-out: MIC

NC[C@H]1O[C@H](O[C@H]2[C@H](O)[C@@H](O[C@H]3O[C@H](CO)[C@@H](O)[C@H](N)[C@H]3O)[C@H](N)C[C@@H]2N)[C@H](N)C[C@@H]1O [Tobramycin]
MBC (E. coli (Swine); [4]): 5 µg/mL | MIC (E. coli (Swine); [5]): 1 µg/mL

Gentamycin
MBC (Pasteurella multocida): 1 µg/mL | MIC (Pasteurella multocida): < 0.5 µg/mL | MBC (E. coli (Swine)): 5 µg/mL | MIC (E. coli (Swine)): 5 µg/mL | MBC (E. coli (Calf)): 5 µg/mL | MIC (E. coli (Calf)): 5 µg/mL | MBC (Staphylococcus aureus): 5 µg/mL | MIC (Staphylococcus aureus): 0.5 µg/mL | MBC (Salmonella typhi-murium): 5 µg/mL | MIC (Salmonella typhi-murium): 5 µg/mL

C=C[C@]1(C)C[C@@H](OC(=O)CSCCN(CC)CC)[C@]2(C)[C@H](C)CC[C@]3(CCC(=O)[C@H]32)[C@@H](C)[C@@H]1O [Tiamulin, 14-desoxy-14-[(2-diethyl-amino-ethyl)-mercapto-acetoxy]-mutilin hydrogen fumarate]
MBC (E. coli (Swine); [4]): 100 µg/mL | MIC (E. coli (Swine); [5]): 50 µg/mL | effectiveness against some Gram positive bacteria, Mycoplasma and Treponema [1]: effective against some Gram positive bacteria, Mycoplasma and the most important Treponema | effectiveness against Treponema hyodysenteriae (Treponema hyodysenteriae): extremely effective | effectiveness against Mycoplasma hyopneumoniae (Mycoplasma hyopneumoniae): extremely effective

NC[C@@H]1O[C@H](O[C@H]2[C@@H](O)[C@H](O[C@@H]3[C@@H](O)[C@H](N)C[C@H](N)[C@H]3O[C@H]3O[C@H](CN)[C@@H](O)[C@H](O)[C@H]3N)O[C@@H]2CO)[C@H](N)[C@@H](O)[C@@H]1O [Neomycin]
MBC (Pasteurella multocida): 5 µg/mL | MIC (Pasteurella multocida): 1 µg/mL | MBC (E. coli (Swine)): 10 µg/mL | MIC (E. coli (Swine)): 5 µg/mL | MBC (E. coli (Calf)): > 200 µg/mL | MIC (E. coli (Calf)): > 200 µg/mL | nephrotoxic properties [2]: may cause azotaemia and oliguria | MBC (Staphylococcus aureus): 25 µg/mL | MIC (Staphylococcus aureus): 10 µg/mL | MBC (Salmonella typhi-murium): 25 µg/mL | MIC (Salmonella typhi-murium): 10 µg/mL

CN[C@@H]1[C@@H](O[C@H]2O[C@H](CO)[C@@H](N)[C@H](O)[C@H]2O)OC2C[C@@H](N)[C@@H](O[C@H]3[C@H](O)[C@@H](O)[C@H](N)C[C@@H]3N)OC2[C@@H]1O (stereo partly shown) [Apramycin]
MBC (E. coli (Swine); [4]): 25 µg/mL | MIC (E. coli (Swine); [5]): 25 µg/mL | effect against Pseudomonas strains of mastitic origin [3]: particularly strong effect

[H]/N=C(/N)N[C@H]1[C@H](O)[C@@H](O)[C@H](O[C@@H]2O[C@@H](C)[C@](O)(C=O)[C@H]2O[C@@H]2O[C@@H](CO)[C@H](O)[C@@H](O)[C@@H]2NC)[C@@H](N/C(N)=N\[H])[C@@H]1O [Streptomycin]
MBC (E. coli (Swine); [4]): > 200 µg/mL | MIC (E. coli (Swine); [5]): 100 µg/mL

NC[C@H]1O[C@H](O[C@H]2[C@H](O)[C@@H](O[C@H]3O[C@H](CO)[C@@H](O)[C@H](N)[C@H]3O)[C@H](N)C[C@@H]2N)[C@H](O)[C@@H](O)[C@@H]1O [Kanamycin]
MBC (E. coli (Swine); [4]): 25 µg/mL | MIC (E. coli (Swine); [5]): 10 µg/mL | MBC (Salmonella typhi-murium; Salmonella enterica, read-out: MBC): 50 µg/mL | MIC (Salmonella typhi-murium; Salmonella enterica, read-out: MIC): 25 µg/mL
